Reference: US8889591B2, “Herbicidal compositions comprising 4-amino-3-chloro-5-fluoro-6-(4-chloro-2-fluoro-3-methoxyphenyl)pyridine-2-carboxylic acid or a derivative thereof and bromobutide, daimuron, oxaziclomefone or pyributicarb” (Dow Agrosciences LLC, priority 2012, dated 2014)

Test system: CYPRO
Test: In-water applied greenhouse weed control, transplanted paddy rice system
Assay type: in vivo, Cyperus rotundus L.
Conditions: in-water application
Method: Weed seeds or nutlets of the desired test plant species were planted in puddled soil (mud) prepared by mixing a shredded, non-sterilized mineral soil (50.5 percent silt, 25.5 percent clay, and 24 percent sand, with a pH of about 7.6 and an organic matter content of about 2.9 percent) and water at a 1:1 volumetric ratio. The prepared mud was dispensed in 365 mL aliquots into 16-ounce (oz.) non-perforated plastic pots with a surface area of 86.59 square centimeters (cm^2) leaving a headspace of 3 centimeters (cm) in each pot. Mud was allowed to dry overnight prior to planting or transplanting. Rice seeds were planted in Sun Gro MetroMix® 306 planting mixture, which typically has a pH of 6.0 to 6.8 and an organic matter content of about 30 percent, in plastic plug trays. Seedlings at the second or third leaf stage of growth were transplanted into 840 mL of mud contained in 32-oz. non-perforated plastic pots with a surface area of 86.59 cm^2 4 days prior to herbicide application. The paddy was created by filling the headspace of the pots with 2.5 to 3 cm of water. When required to ensure good germination and healthy plants, a fungicide treatment and/or other chemical or physical treatment was applied. The plants were grown for 4-22 days in a greenhouse with an approximate 14 h photoperiod which was maintained at about 29° C. during the day and 26° C. during the night. Nutrients were added as Osmocote® (19:6:12, N:P:K+ minor nutrients) at 2 g per 16-oz. pot and 4 g per 32-oz. pot. Water was added on a regular basis to maintain the paddy flood, and supplemental lighting was provided with overhead metal halide 1000-Watt lamps as necessary. The plants were employed for testing when they reached the first through fourth true leaf stage.
Treatments consisted of the acid or esters of 4-amino-3-chloro-5-fluoro-6-(4-chloro-2-fluoro-3-methoxy-phenyl)pyridine-2-carboxylic acid (compound A) each formulated as an SC and various herbicidal components alone and in combination. Forms of compound A were applied on an acid equivalent basis.
Other herbicidal components were applied on an active ingredient basis and included daimuron formulated as an EC, bromobutide (technical grade material), and oxaziclomefone (technical grade material).
Treatment requirements for each compound or herbicidal component were calculated based upon the rates being tested, the concentration of active ingredient or acid equivalent in the formulation, an application volume of 2 mL per component per pot, and an application area of 86.59 cm^2 per pot.
For formulated compounds, a measured amount was placed in an individual 100 or 200 mL glass vial and was dissolved in a volume of 1.25% (v/v) Agri-Dex® crop oil concentrate to obtain application solutions.
For technical grade compounds, a weighed amount was placed in an individual 100 to 200 mL glass vial and was dissolved in a volume of acetone to obtain concentrated stock solutions. […] The concentrated stock solutions obtained were diluted with an equivalent volume of an aqueous mixture containing 2.5% (v/v) crop oil concentrate so that the final application solutions contained 1.25% (v/v) crop oil concentrate.
Applications were made by injecting, with a pipetter, appropriate amounts of the application solutions, individually and sequentially, into the aqueous layer of the paddy. Control plants were treated in the same manner with the solvent blank. Applications were made so that all treated plant material received the same concentrations of acetone and crop oil concentrate.
The treated plants and control plants were placed in a greenhouse as described above and water was added as needed to maintain a paddy flood. After approximately 3 weeks the condition of the test plants as compared with that of the untreated plants was determined visually and scored on a scale of 0 to 100 percent where 0 corresponds to no injury or growth inhibition and 100 corresponds to complete kill. […]

COc1c(Cl)ccc(-c2nc(C(=O)OCc3ccccc3)c(Cl)c(N)c2F)c1F [Compound A Benzyl Ester]
Visual Weed Control (%) - 19 DAA CYPRO Obs (Compound A Benzyl Ester 8 gae/ha alone): 50%
Visual Weed Control (%) - 21 DAA CYPRO Obs (Compound A Benzyl Ester 8.75 gae/ha alone): 60%
Visual Weed Control (%) - 19 DAA CYPRO Obs (Compound A Benzyl Ester 16 gae/ha alone): 85%
Visual Weed Control (%) - 19 DAA CYPRO Obs (Compound A Benzyl Ester 32 gae/ha alone): 90%
